Measured values published in patent US20220387414A1, “TREATING LIVER DISORDERS” (Terns Pharmaceuticals Inc., priority 2019, published 2022).
Values joined by “and” are separate entries in the source; they are usually repeats but may differ in a detail not shown here. Equal values may be shown once.

Columns and labels:
[1] = longer term studies; cited from earlier work
[2] = In vitro metabolic stability in cryopreserved hepatocytes (human); assay type: in vitro ADME; settings: 0.5×10^6 cells/mL, 37° C.
Description: (§1) 283, no. 1, pp. 46-58 (1997).

[3] = test system: FXR-regulated gene expression in liver and ileum; experiment: RT-qPCR of FXR-regulated gene expression in liver and ileum after single oral dose; assay type: in vivo; settings: mice, single oral dose 10 mg/kg, 6 hours after dose
Description: For RT-qPCR, gene-specific primers were used to quantitate FXR-regulated gene expression in liver and ileum using the 2-ddCT method. Results are shown in FIG. 6 (data presented as mean±SEM; **** indicates p<0.0001 and * indicates p<0.05 versus vehicle, with statistics determined by one-way ANOVA followed by Tukey).

[4] = Tissue distribution of radiolabeled (14C) Compound I after oral dose; assay type: in vivo; settings: Long-Evans rats, oral 5 mg/kg (100 μCi/kg), up to 168 hours
[5] = Clinical 7-day study, serum exposure of Compound I; assay type: in vivo, human; settings: healthy subjects, each 24-hour dosing period, all dosed groups
Description: (§2) Second Study. […] 10-14, 2019.
(§3) Serum levels of Compound I in the subjects were periodically measured.

[6] = test system: 7-alpha-hydroxy-4-cholesten-3-one (7α-C4); experiment: Clinical 7-day study, serum 7α-C4 suppression; assay type: in vivo, human; settings: healthy subjects; for maximum suppression of serum 7α-C4 levels (reduction): Day 7, six hours after dosing
Procedure: as §2
Serum levels of 7-alpha-hydroxy-4-cholesten-3-one (7α-C4) in the subjects were periodically measured. FIGS. 16A and 16B show changes of mean serum levels of 7α-C4 from the pre-dose baseline in different dosing groups on Day 1 and Day 7, respectively. […] On Day 7, maximum suppression of serum 7α-C4 levels was observed six hours after dosing corresponding to a reduction of 74%, 82%, and 91% in the 25, 75, and 150 mg dosing groups, respectively.

[7] = test system: differentially expressed genes and pathways in liver; experiment: RNAseq of liver after single oral dose; settings: mice liver, 6 hours; for number of differentially expressed genes modulated vs vehicle: fold change≥1.5, q-value<0.05; for number of global pathways enriched: p<0.05
Procedure: For RNAseq analysis, mRNA was extracted from total liver and sequenced using standard Illumina library preparation and sequencing protocols. Differentially expressed genes (DEG) were determined using RSEM and edgeR software packages and analyzed using Advaita Bio's iPathwayGuide software.

[8] = PK profile after oral dosing in monkeys; assay type: in vivo; settings: cynomolgus monkeys, oral 1 mg/kg for 7 consecutive days
Procedure: (§4) The pharmacodynamics were measured as a function of 7-alpha-hydroxy-4-cholesten-3-one (7α-C4) reduction (FIG. 4), as quantified by LC-MS/MS. Pharmacokinetics data is presented in Table 3, and were determined by non-compartmental analysis.

[9] = Clinical 7-day study, serum LDL; assay type: in vivo, human; settings: healthy subjects, 25, 75, or 150 mg QD for 7 days
Description: as §3
Serum levels of low-density lipoprotein (LDL) in the subjects were periodically measured.

[10] = In vitro metabolic stability in cryopreserved hepatocytes (dog); assay type: in vitro ADME; settings: Beagle Dog hepatocytes, 0.5×10^6 cells/mL, 37° C.
Description: as §1

[11] = In vitro metabolic stability in cryopreserved hepatocytes (rat); assay type: in vitro ADME; settings: Sprague-Dawley Rat hepatocytes, 0.5×10^6 cells/mL, 37° C.
Description: as §1

[12] = test system: NASH induced by a high fat diet in combination with CCl4; experiment: Mouse model of NASH (high fat diet in combination with CCl4); assay type: in vivo, C57/BL6J mice; settings: 28 days
Procedure: Hematoxylin & Eosin (H&E) and Sirius Red histological staining of liver tissue was used to quantitate NAFLD activity score (NAS), steatosis, ballooning, inflammation and fibrosis.
NAS is calculated based upon liver steatosis, inflammation, and ballooning and was determined by analysis of liver tissue histology using H&E stain. Specifically, inflammation score was calculated based upon H&E staining: Score 0, none; 1, <2 foci per 200X field; 2, 2-4 foci per 200X field; 3, >4 foci per 200X field. […] Hepatocellular ballooning is a form of liver cell injury associated with cell swelling and is also measured by H&E stained liver sections. The ballooning score is calculated as follows: 0-no hepatocyte ballooning; 1-few ballooning hepatocytes; 2-many hepatocytes with prominent ballooning.
Liver fibrosis was quantified by histological analysis of the percentage of Sirius Red-positive liver sections.

[13] = In vitro metabolic stability in cryopreserved hepatocytes (monkey); assay type: in vitro ADME; settings: Cynomolgus Monkey hepatocytes, 0.5×10^6 cells/mL, 37° C.
Description: as §1

[14] = Clinical 7-day study, safety and pruritus; assay type: in vivo, human; settings: healthy volunteers
Procedure: as §2
Safety was assessed during dosing and for 10 (±1) days after dosing.

[15] = test system: 7-alpha-hydroxy-4-cholesten-3-one (7α-C4); experiment: PD profile (7α-C4 reduction) after oral dosing in monkeys; assay type: in vivo; settings: cynomolgus monkeys, oral 1 mg/kg for 7 consecutive days
Procedure: as §4

[16] = Pharmacokinetics assay, IV and oral, monkey; assay type: in vivo, cynomolgus monkeys; settings: plasma; Cynomolgus Monkey, oral 5 mg/kg, IV 0.3 mg/kg
Description: Results are shown in FIG. 1A (IV administration) and FIG. 1B (oral administration), and in Table 2. […] Smaller Vdss in monkeys is correlated with higher plasma protein binding.

[17] = In vitro metabolic stability in cryopreserved hepatocytes (mouse); assay type: in vitro ADME; settings: 0.5×10^6 cells/mL, 37° C.
Description: as §1

[18] = test system: FGF-19; experiment: Clinical 7-day study, serum FGF-19; assay type: in vivo, human; settings: healthy subjects, four hours after dosing on Day 7; dosing groups not assigned in the text
Description: as §3
Serum levels of FGF-19 in the subjects were periodically measured. FIGS. 17A and 17B show changes of mean serum levels of FGF-19 from the pre-dose baseline in different dosing groups on Day 1 and Day 7, respectively.

[19] = test system: FXR-regulated, inflammatory and fibrosis gene expression in the liver; experiment: Liver gene expression in NASH mouse model (RT-qPCR, RNA-seq); assay type: in vivo, C57/BL6J mice; settings: 10, 30, or 100 mg/kg daily oral, 28 days
[20] = 10, 30, and 100 mg/kg daily oral
[21] = 10, 30, or 100 mg/kg daily oral

O=C(O)c1cc(F)c2nc(N3[C@@H]4CC[C@H]3C[C@@H](OCc3c(-c5ccccc5OC(F)(F)F)noc3C3CC3)C4)sc2c1 [tropifexor]
pruritus [1]: known to result in pruritus

Cn1cc(C(=O)O)c2ccc(N3CCC(OCc4c(-c5c(Cl)cccc5Cl)noc4C4CC4)CC3)cc21 [Compound I, 6-{4-[5-cyclopropyl-3-(2,6-dichloro-phenyl)-isoxazol-4-ylmethoxy]-piperidin-1-yl}-1-methyl-1H-indole-3-carboxylic acid]
half-life at 1 µM [2]: 1.4 ± 0.108 h | induction of FXR-specific genes (liver SHP1, liver OSTb, ileum SHP1, ileum FGF15) [3]: preferentially induces FXR-specific genes in the liver | tissues with the most radioactive material [4]: Liver, small intestine, and cecum | mean serum levels of Compound I versus its EC50 [5]: generally did not exceed the EC50 | maximum suppression of serum 7α-C4 levels (reduction) ([6]; 25 mg QD): 74% | maximum suppression of serum 7α-C4 levels (reduction) ([6]; 75 mg QD): 82% | maximum suppression of serum 7α-C4 levels (reduction) ([6]; 150 mg QD): 91% | suppression of serum 7α-C4 levels after a single dose ([6]; Day 1, all dosed groups (25, 75, 150 mg)): partial suppression | number of differentially expressed genes modulated vs vehicle ([7]; single oral 10 mg/kg): 500 genes | number of global pathways enriched ([7]; single oral 10 mg/kg): 32 pathways | plasma exposure on day 1 and day 7 [8]: comparable | serum LDL changes above baseline [9]: minimal | half-life at 1 µM [10]: 2.1 ± 0.258 h | half-life at 1 µM [11]: 2.18 ± 0.0685 h | ballooning score compared to untreated NASH mice [12, 20]: significantly reduced | inflammation score compared to untreated NASH mice [12, 20]: significantly reduced | steatosis score compared to untreated NASH mice [12, 20]: significantly reduced | NAFLD Activity Score (NAS) compared to untreated NASH mice [12, 21]: significantly lower | liver fibrosis (Sirius Red-positive area) compared to untreated NASH control [12, 21]: statistically significant reduced fibrosis | half-life at 1 µM [13]: 1.06 ± 0.013 h | reports of pruritus ([14]; all doses (25, 75, 150 mg QD for 7 days)): no reports of pruritus | safety and tolerability ([14]; all doses, during dosing and for 10 (±1) days after): safe and well tolerated | suppression of the pharmacodynamics biomarker 7α-C4 [15]: sustained suppression | bioavailability [16]: 18% | half-life at 1 µM [17]: 0.727 ± 0.0472 h | maximum increases from baseline in serum FGF 19 levels [18]: 718% and 486% and 454% | collagen, type 1, alpha 1 expression in the liver compared to control NASH mice [19]: decreased

O=C(O)c1ccnc(N2CC(O)(c3ccc(OCc4c(-c5c(Cl)cccc5Cl)noc4C4CC4)cc3Cl)C2)c1 [cilofexor]
pruritus [1]: known to result in pruritus

CC[C@H]1[C@@H](O)[C@@H]2[C@H](CC[C@]3(C)[C@@H]([C@H](C)CCC(=O)O)CC[C@@H]23)[C@@]2(C)CC[C@@H](O)C[C@@H]12 [OCA, obeticholic acid, reference compound]
pruritus [1]: known to result in pruritus | number of differentially expressed genes modulated vs vehicle ([7]; single oral 30 mg/kg): 44 genes | number of global pathways enriched ([7]; single oral 30 mg/kg): 6 pathways
